The source of these data is patent US20260101897A1, “PLANT ENVIRONMENTAL STRESS TOLERANCE IMPROVEMENT AGENT AND ENVIRONMENTAL STRESS TOLERANCE IMPROVEMENT METHOD” (priority 2022, published 2026).

What all share (type): in vivo
The test system of data set [1] is radish (Akamaru Hatsuka). The data set is described as follows: Evaluation Example 7: tolerance to drying stress, leaf mortality. To be noted: for Leaf mortality rate: test compound 0.5 mM (50 mL), water supply stopped 7 days twice; for Leaf mortality rate / Environmental stress suppressing rate: drying stress Yes; for Environmental stress suppressing rate: test compound 0.5 mM. Here is the method:
EGT and GB were commercially available products, and pure water was used as a solvent. In a plastic pot having a diameter of 135 mm and a height of 110 mm, 1 kg of granular soil (Kumiai horticultural soil) was placed, and 5 individual radish (Akamaru Hatsuka) was seeded per pot. They were managed in a greenhouse set at room temperature of 25° C. EGT in an amount of 50 mL or GB in an amount of 50 mL was added on the 22nd day after seeding, and water supply was stopped for 7 days. After cultivation under water supply for 7 days, drying stress was applied by stopping water supply for 7 days again. The dead leaves of radish were counted after the drying stress was applied, and the leaf mortality rate was evaluated as an index of physiological disorder. The leaf mortality rate and the environmental stress suppressing rate were calculated according to the following formulas. [formula] [formula]

The subject of data set [2] is rapeseed. The data set is described as follows: Evaluation Example 9: tolerance to excessive water stress, plant mortality. To be noted: for Environmental stress suppressing rate: excessive water stress Yes. Here is the method:
EGT (Example 11, Comparative Example 31) or GB (Comparative Examples 30 and 32) was prepared so as to have a concentration shown in Table 9 below. EGT and GB were commercially available products, and pure water was used as a solvent.
5 mL of pure water was added to 9-cm petri dishes on which filter paper was placed, and 12 rapeseed seeds were seeded per petri dish. They were located in a growth chamber set at room temperature of 22° C., and the light period was 16 hours and the dark period was 8 hours. The light conditions were set such that the light intensity was 5000 lx in the central part under irradiation with the fluorescent lamp.
On the sixth day after seeding, pure water in the petri dish was removed, 5 mL of EGT or 5 mL of GB was added to the petri dish, and one day after that, 50 mL of pure water was added to the petri dish to apply excessive water stress.
5 The surviving plants were counted 19 days after the excessive water stress was applied, and the mortality rate of the plants was evaluated as an index of physiological disorder. The mortality rate and the environmental stress suppressing rate were calculated according to the following formulas.

The subject of data set [3] is Arabidopsis thaliana (Col-0). Nature of the data set: Evaluation Example 5: tolerance to excessive nutrient stress, leaf wilting. To be noted: for leaf wilting due to excessive nutrient stress, result in words: 0.5 mM; for Leaf wilting rate: test compound 0.5 mM (50 mL), excessive nutrient stress Yes (liquid fertilizer at 5-fold dilution), one day after stress; for Environmental stress suppressing rate: test compound 0.5 mM, excessive nutrient stress Yes. Here is the method:
EGT and GB were commercially available products, and pure water was used as a solvent.
One individual Arabidopsis thaliana (Col-0) was seeded in a plastic pot having a diameter of 60 mm and a height of 55 mm. Plastic deep dishes each having a diameter of 160 mm and a height of 28 mm were prepared, and four pots were respectively placed therein. As soil, 45 mL of vermiculite, 22.5 mL of granular soil (Kumiai horticultural soil), and 22.5 mL of vermiculite were placed in the pot in this order.
They were located in a growth chamber set at room temperature of 22° C., and the light period was 16 hours and the dark period was 8 hours. The light conditions were set such that the light intensity was 5000 lx in the central part under irradiation with the fluorescent lamp. Water supply was conducted from the bottom, and the water level was set at about 5 mm. On the 61st day after seeding, 50 mL of EGT or 50 mL of GB was added, and one day after that, a liquid fertilizer (HYPONeX, manufactured by Hyponex Japan Corp., Ltd.) was applied at a 5-fold dilution to give excessive nutrient stress.
The number of wilted leaves was evaluated one day after the excessive nutrient stress was applied. The leaf wilting rate and the environmental stress suppressing rate were calculated according to the following formulas.

Data set [4] relates to Arabidopsis thaliana (Col-0). Nature of the data set: Evaluation Example 4: tolerance to high temperature stress, plant mortality. The conditions noted are these: for Environmental stress suppressing rate: high temperature stress Yes. Here is the method: EGT (Example 5 and Comparative Example 13) or GB (Comparative Example 12 and Comparative Example 14) was prepared so as to have a concentration shown in Table 4 below. EGT and GB were commercially available products, and pure water was used as a solvent.
In a plastic pot having a diameter of 60 mm and a height of 55 mm, 80 mL of culture soil (manufactured by Hanagokoro Co., Ltd.) was put, and one individual Arabidopsis thaliana (Col-0) was seeded per pot. Plastic deep dishes each having a diameter of 160 mm and a height of 28 mm were prepared, and four pots were respectively placed therein.
They were located in a growth chamber set at room temperature of 22° C., and the light period was 16 hours and the dark period was 8 hours. The light conditions were set such that the light intensity was 5000 lx in the central part under irradiation with the fluorescent lamp. Water supply was conducted from the bottom, and the water level was set at about 5 mm. On the 41st day after seeding, 50 mL of EGT or 50 mL of GB was added, and one day after that, high temperature stress was applied by exposure to an environment of 42° C. for 3 hours.
The surviving plants were counted 12 days after the high temperature stress was applied, and the plant mortality rate was evaluated as an index of physiological disorder. The mortality rate and the environmental stress suppressing rate were calculated according to the following formulas.

Data set [5] relates to Arabidopsis thaliana (Col-0). Nature of the data set: Evaluation Example 1: tolerance to salt stress, plant mortality. Here is the method: L-(+)-ergothioneine (Examples 1 and 2 and Comparative Example 3) and glycine betaine (Comparative Examples 1 and 2 and Comparative Example 4) were prepared so as to have the concentrations shown in Table 1 below. EGT and GB were commercially available products, and pure water was used as a solvent.
Three individuals of Arabidopsis thaliana (Col-0) were seeded per well in a 24-well cell culture plate. Mixed salts for Murashige and Skoog medium (Fujifilm Wako Pure Chemical Industries, Ltd.) to which 1 wt. % of sucrose and 0.1 wt. % of agar-agar powder were added was used as a liquid medium, and the liquid medium was placed in a 2 mL per well.
They were located in a growth chamber set at room temperature of 22° C., and the light period was 16 hours and the dark period was 8 hours. The light conditions were set such that the light intensity was 5000 lx in the central part under irradiation with the fluorescent lamp. On the fourth day after seeding, EGT or GB was added so as to give a predetermined concentration, and 24 hours later, an aqueous sodium chloride solution was added so as to give a final 100 mM concentration, thereby giving a salt stress.
The number of surviving plants was counted on the 10th day after seeding, and the plant mortality rate was evaluated as an index of physiological disorder. The mortality rate and the environmental stress suppressing rate were calculated according to the following formulas.

Setting [6] is: test compound 0.1 mM (5 mL), excessive water stress Yes (50 mL pure water per petri dish), 19 days after stress.
Where [7] appears, read: test compound 0.1 mM, excessive water stress No.
Setting [8] is: test compound 0.5 mM (50 mL), high temperature stress Yes (42° C. for 3 hours), 12 days after stress.
The mark [9] stands for this setting: test compound 0.5 mM, high temperature stress No.
The mark [10] stands for this setting: test compound 0.1 mM, salt stress Yes (100 mM sodium chloride).
[11] abbreviates: test compound 0.1 mM, salt stress Yes (100 mM sodium chloride), 10th day after seeding.
Where [12] appears, read: test compound 1 mM, salt stress No.
[13] abbreviates: test compound 1 mM, salt stress Yes (100 mM sodium chloride).
Setting [14] is: test compound 1 mM, salt stress Yes (100 mM sodium chloride), 10th day after seeding.

`C[N+](C)(C)[C@@H](Cc1c[nH]c(=S)[nH]1)C(=O)[O-]` [EGT, L-(+)-ergothioneine] yielded a Leaf mortality rate in data set [1] of 17%. Also, the “Environmental stress suppressing rate” value amounted to 71% in data set [1]; 58% in data set [2] (test compound 0.1 mM); 76% in data set [3]; 67% in data set [4] (test compound 0.5 mM); 48% in data set [5] (setting [10]); 81% in data set [5] (setting [13]). Besides, the Mortality rate in data set [2] (setting [6]) amounted to 25%; in data set [2] (setting [7]), 0%; in data set [4] (setting [8]) it was 25%; in data set [4] (setting [9]) it was 0%; in data set [5] (setting [11]) it was 39%; in data set [5] (setting [12]), 0%. Further, the Mortality rate in data set [5] (setting [14]) was 14%. In addition, the “leaf wilting due to excessive nutrient stress, result in words” value in data set [3] is “suppressed”. The Leaf wilting rate in data set [3] amounted to 24%.
As for `C[N+](C)(C)CC(=O)[O-]` [GB, glycine betaine, reference compound], in data set [1] (0.5 mM, drying stress), the “mortality rate due to drying stress, result in words” value was “not suppressed”. Further, in data set [1], the Leaf mortality rate was 73%. Moreover, the “Environmental stress suppressing rate” value turned out to be 0% in data set [1]; 0% in data set [2] (test compound 0.1 mM); 11% in data set [3]; 0% in data set [4] (test compound 0.5 mM); 0% in data set [5] (setting [10]); 0% in data set [5] (setting [13]). Besides, the “mortality rate due to excessive water stress, result in words” value in data set [2] (0.1 mM, excessive water stress) was “not suppressed”. The Mortality rate in data set [2] (setting [6]) came to 60%; in data set [2] (setting [7]) it was 0%; in data set [4] (setting [8]), 75%; in data set [4] (setting [9]), 0%; in data set [5] (setting [11]) it was 79%; in data set [5] (setting [12]), 0%. The Mortality rate in data set [5] (setting [14]) was 75%. For the same compound, in data set [3], the “leaf wilting due to excessive nutrient stress, result in words” value is recorded as “hardly suppressed”. For the same compound, in data set [3], the Leaf wilting rate is listed as 89%. Moreover, in data set [4] (0.5 mM, high temperature stress), the “mortality rate due to high temperature stress, result in words” value was “not suppressed”. The “death due to salt stress, result in words” value in data set [5] (GB treatment 1 mM and 0.1 mM, salt stress) is “not suppressed”.
